# Experiments:
# [1] = biological target: pyruvate:ferredoxin oxidoreductase (PFOR) of Aquifex aeolicus, five-subunit complex PORαβγδε (Aquifex aeolicus (endogenous in A. aeolicus VF5 cells)) (UniProt O67254); experiment: native gel or EMSA; 3-12% Blue Native gel of elution fraction 2 of the Fd7Strep pull-down; in-gel PFOR and OGOR activity at roughly 300 kDa; proteins of the activity bands identified by mass spectrometry; for the self-association: dimer of the αβγδε protomer, from the estimated mass
# [2] = biological target: 2-oxoglutarate:ferredoxin oxidoreductase (OGOR) of Aquifex aeolicus, five-subunit complex FORαβγδε (Aquifex aeolicus (endogenous in A. aeolicus VF5 cells)) (UniProt O67229); experiment: as above
# [3] = biological target: T1, OGOR (2-oxoglutarate:ferredoxin oxidoreductase, Forαβγδε) (Aquifex aeolicus, UniProt O67229+O67230+O67231); experiment: spectrophotometric methyl viologen reduction at […] nm, enriched fraction; in-gel activity; assay type: biochemical; conditions: 10 mM 2-oxoglutarate, 0.1 mM CoA, 0.2 mM TPP, 1 mM MgCl2, 5 mM methyl viologen, pH 8, 80 °C, anaerobic; decarboxylation direction
# T1 construct: gene forA2; native, enriched from soluble fraction (DEAE, then Bio-Gel HTP); dimer of pentamers (αβγδε)2, about 250-300 kDa; Aq_1163 may co-migrate; with 2-oxoglutarate:ferredoxin oxidoreductase subunit epsilon (ferredoxin-like, Fd2); 2-oxoglutarate:ferredoxin oxidoreductase subunit delta
# [4] = biological target: T2, Fd7Strep (recombinant ferredoxin 7) (Aquifex aeolicus, UniProt Z9T2O6C3G9); experiment: EPR spectroscopy and UV-visible absorption; assay type: binding; conditions: purified protein, dithionite-reduced, […] K
# T2 construct: full length with C-terminal Strep-tag II, expressed in E. coli MG1655 ΔiscR; native protein 80 residues, apoprotein 9130 Da; native N-terminus […]
# T2 sequence (Z9T2O6C3G9 1-80): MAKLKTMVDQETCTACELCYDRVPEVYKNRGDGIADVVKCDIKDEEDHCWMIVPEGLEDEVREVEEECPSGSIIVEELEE
# [5] = biological target: T3, PFOR (pyruvate:ferredoxin oxidoreductase, Porαβγδε) (Aquifex aeolicus, UniProt O67254+O67255+O67256); experiment: spectrophotometric methyl viologen reduction at […] nm, enriched fraction; in-gel activity; assay type: biochemical; conditions: 10 mM pyruvate, 0.1 mM CoA, 0.2 mM TPP, 1 mM MgCl2, 5 mM methyl viologen, pH 8, 80 °C, anaerobic; decarboxylation direction
# T3 construct: gene forA1; native, enriched from soluble fraction (DEAE step); dimer of pentamers (αβγδε)2, about 250-300 kDa; with pyruvate:ferredoxin oxidoreductase subunit epsilon (ferredoxin-like, Fd3); pyruvate:ferredoxin oxidoreductase subunit delta
# T3 sequence (O67255 entry or part of it): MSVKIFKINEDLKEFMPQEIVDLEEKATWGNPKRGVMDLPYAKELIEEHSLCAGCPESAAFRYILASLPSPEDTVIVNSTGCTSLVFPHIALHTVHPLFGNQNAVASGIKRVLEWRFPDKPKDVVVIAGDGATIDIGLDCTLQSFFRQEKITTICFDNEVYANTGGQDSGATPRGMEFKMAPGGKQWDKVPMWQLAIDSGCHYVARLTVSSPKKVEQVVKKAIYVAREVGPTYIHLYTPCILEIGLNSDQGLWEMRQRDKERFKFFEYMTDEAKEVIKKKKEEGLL
# T3 sequence (O67254 entry or part of it): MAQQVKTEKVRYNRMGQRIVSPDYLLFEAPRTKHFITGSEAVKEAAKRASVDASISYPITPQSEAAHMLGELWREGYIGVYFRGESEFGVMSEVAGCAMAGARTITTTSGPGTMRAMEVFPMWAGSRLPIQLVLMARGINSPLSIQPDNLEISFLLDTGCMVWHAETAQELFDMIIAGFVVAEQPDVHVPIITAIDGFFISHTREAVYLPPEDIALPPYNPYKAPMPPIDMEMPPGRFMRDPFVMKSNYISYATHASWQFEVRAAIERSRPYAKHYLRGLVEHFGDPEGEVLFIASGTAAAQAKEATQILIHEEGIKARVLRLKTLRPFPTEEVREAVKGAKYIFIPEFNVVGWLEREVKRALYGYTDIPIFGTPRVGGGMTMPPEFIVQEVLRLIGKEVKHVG
# T3 sequence (O67256 entry or part of it): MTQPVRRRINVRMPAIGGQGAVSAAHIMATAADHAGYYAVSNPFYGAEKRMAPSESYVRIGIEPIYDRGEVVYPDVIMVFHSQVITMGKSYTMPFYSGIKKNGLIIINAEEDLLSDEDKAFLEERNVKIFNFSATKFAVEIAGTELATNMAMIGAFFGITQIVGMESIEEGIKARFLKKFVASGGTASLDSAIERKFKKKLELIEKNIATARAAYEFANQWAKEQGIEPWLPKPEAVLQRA
# T3 sequence (O67251 whole entry, further chain): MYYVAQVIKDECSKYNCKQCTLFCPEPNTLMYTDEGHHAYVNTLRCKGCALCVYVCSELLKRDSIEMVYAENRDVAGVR
# T3 sequence (O67252 entry or part of it, further chain): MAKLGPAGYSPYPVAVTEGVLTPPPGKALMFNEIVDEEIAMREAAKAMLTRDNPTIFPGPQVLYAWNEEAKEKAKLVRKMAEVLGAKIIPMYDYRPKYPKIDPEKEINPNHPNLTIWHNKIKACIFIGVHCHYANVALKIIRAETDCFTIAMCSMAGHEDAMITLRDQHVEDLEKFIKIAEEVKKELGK
# T1 sequence (O67229 1-389): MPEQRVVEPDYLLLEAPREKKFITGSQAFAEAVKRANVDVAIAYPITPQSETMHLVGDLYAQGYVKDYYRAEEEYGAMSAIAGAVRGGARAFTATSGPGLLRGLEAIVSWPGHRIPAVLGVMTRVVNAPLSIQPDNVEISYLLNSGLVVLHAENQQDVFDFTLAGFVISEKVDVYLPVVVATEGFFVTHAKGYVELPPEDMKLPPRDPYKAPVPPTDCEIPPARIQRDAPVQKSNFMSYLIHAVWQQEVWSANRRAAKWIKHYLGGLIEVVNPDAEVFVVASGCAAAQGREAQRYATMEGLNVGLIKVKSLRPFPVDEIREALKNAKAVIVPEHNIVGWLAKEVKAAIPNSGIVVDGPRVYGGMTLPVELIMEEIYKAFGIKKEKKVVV
# T1 sequence (O67230 1-289): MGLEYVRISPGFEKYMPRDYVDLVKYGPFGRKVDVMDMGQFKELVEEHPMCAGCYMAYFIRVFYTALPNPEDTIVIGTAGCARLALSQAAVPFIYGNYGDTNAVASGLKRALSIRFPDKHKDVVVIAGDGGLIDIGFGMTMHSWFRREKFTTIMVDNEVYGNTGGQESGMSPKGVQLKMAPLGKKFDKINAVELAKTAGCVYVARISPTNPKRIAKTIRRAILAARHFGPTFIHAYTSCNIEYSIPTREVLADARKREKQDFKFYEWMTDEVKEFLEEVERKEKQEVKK
# T1 sequence (O67231 1-230): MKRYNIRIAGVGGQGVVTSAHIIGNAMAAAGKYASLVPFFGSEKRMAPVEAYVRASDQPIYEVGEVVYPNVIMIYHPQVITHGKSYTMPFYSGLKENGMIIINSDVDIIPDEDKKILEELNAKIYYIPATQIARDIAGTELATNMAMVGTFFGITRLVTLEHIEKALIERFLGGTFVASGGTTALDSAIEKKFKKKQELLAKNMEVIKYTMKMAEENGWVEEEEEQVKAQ
# T1 sequence (O67228 29-244 partner limits assumed): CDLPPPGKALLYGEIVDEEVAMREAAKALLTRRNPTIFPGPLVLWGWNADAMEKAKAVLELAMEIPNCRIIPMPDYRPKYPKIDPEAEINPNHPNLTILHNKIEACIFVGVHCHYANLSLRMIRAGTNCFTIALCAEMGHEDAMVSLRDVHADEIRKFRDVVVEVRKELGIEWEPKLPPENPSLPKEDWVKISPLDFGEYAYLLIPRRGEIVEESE
# T1 sequence (O67232 whole entry partner): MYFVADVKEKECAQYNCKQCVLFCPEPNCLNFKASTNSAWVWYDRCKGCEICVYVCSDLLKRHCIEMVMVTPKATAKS
molecule,measurement,setting,value
"pyruvate:ferredoxin oxidoreductase (PFOR) of Aquifex aeolicus, five-subunit complex PORαβγδε (from UniProt O67254 1-404; O67255 1-286; O67256 1-241; O67251 1-79; O67252 1-189)",stoichiometry N,[1],2
"2-oxoglutarate:ferredoxin oxidoreductase (OGOR) of Aquifex aeolicus, five-subunit complex FORαβγδε (from UniProt O67229 1-389; O67230 1-289; O67231 1-230; O67232 1-78; O67228 1-244)",stoichiometry N,[2],2
O=C(O)CCC(=O)C(=O)O [2-oxoglutarate],"spectrophotometric methyl viologen reduction at 604 nm, enriched fraction; in-ge",[3],pyruvate for PFOR and 2-oxoglutarate for OGOR
[S]12[Fe]3[S]4[Fe]1[S]1[Fe]2[S]3[Fe]41 [[4Fe-4S] cluster],EPR spectroscopy and UV-visible absorption,[4],confirming the presence of one [4Fe-4S] center per Fd molecule
CC(=O)C(=O)O [pyruvate],"spectrophotometric methyl viologen reduction at 604 nm, enriched fraction; in-ge",[5],pyruvate for PFOR and 2-oxoglutarate for OGOR

# From PMC10052474, “Carbon Fixation in the Chemolithoautotrophic Bacterium Aquifex aeolicus Involves Two Low-Potential Ferredoxins as Partners of the PFOR and OGOR Enzymes” (Life, 2023)
